Source: patent publication US12263139B2, “Use of cannabidiol in the treatment of tuberous sclerosis complex” (Jazz Pharmaceuticals Research UK Limited, priority 2017, dated 2025)

System: Miapaca
Test: Drug combination assay (MTT, CalcuSyn) of Rad001 and CBD in Miapaca
Assay type: cell-based, Homo sapiens
Experimental: For the study of the synergism between Rad001 and CBD on pancreatic cell lines Miapaca was tested, the cells were seeded in 96-multiwell plates at the density of 3.8 10^3 cells/well. After 24 hr incubation at 37° C., the cells were treated with different concentrations of Rad001 and CBD. Different molar ratios between two drugs in different sequences of administration were tested, (Rad001 for 48 h and CBD for 72 h or Rad001 for 72 h and CBD for 48 h and in co-administration for 72 h.
The proliferative response was estimated by colorimetric 3-(4,5 di-methylthiazol-2-yl)-2,5-diphenyltetrazolium bromide (MIT) test. MTT conversion to formazan by metabolically viable cells was monitored by spectrophotometer at an optical density of 570 nm. Each data point represents the average of three separate experiments with each experiment containing four wells. Drug combination studies were based on concentration-effect curves generated as a plot of the fraction of unaffected (surviving) cells versus drug concentration after treatment.
To explore the relative contribution of each agent to the synergism equi-active doses of […] were tested (IC50). Assessment of synergy was performed quantitating drug interaction by Calcusyn computer program (Biosoft, Ferguson, MO). Combination index (CI) values of <1, 1, and >1 indicate synergy, additivity and antagonism, respectively.
Dose reduction index (DRI) representing the measure of how much the dose of each drug in a combination may be reduced at a given effect level compared with the doses of each drug alone.
The effects of the pharmacological combination between CBD and RAD001 on the proliferation MIAPACA cell lines, using MTT assay were studied. The data obtained were processed with dedicated program, CalcuSyn (Chou and Talalay, Biosoft, Oregon, USA), which measures synergism.
The specific contribution of CBD and Rad001 on the cytotoxic effect of the combination of drugs was analyzed by calculating the potentiation factor (PF) defined as the ratio of the IC50 of either CBD or Rad001 alone to the IC50 of CBD and Rad001 in combination. A higher PF indicates a greater cytotoxicity.

## C=C(C)[C@@H]1CCC(C)=C[C@H]1c1c(O)cc(CCCCC)cc1O [CBD, Cannabidiol]
Homo sapiens, MIA PaCa-2, Miapaca, 50% effect level, read-out: Dose of drug alone
  IC50: 3.6 µM
Miapaca, Rad/CBD combination, dose reduction index
  DRI50: CBD 7.1
Ratio of IC50 alone to IC50 of CBD and Rad001 in combination
  potentiation factor (PF): 8
